Where two headings read alike, the source gives them in different places.
What was measured:
[1] = molecular target: T1, Heme-regulated inhibitor (HRI) (Homo sapiens, UniProt Q9BQI3); assay: ADP-GLO kinase assay with eIF2α substrate; supported by nanoDSF (+[…] °C at […]) and Phos-tag gels; assay type: biochemical
T1 construct: gene EIF2AK1; N-terminally His-tagged human HRI, dephosphorylated, from E. coli

[2] = molecular target: T1, Heme-regulated inhibitor (HRI); assay: as above; assay type: biochemical; remark: listed apart in the source

T1 sequence (Q9BQI3 whole entry): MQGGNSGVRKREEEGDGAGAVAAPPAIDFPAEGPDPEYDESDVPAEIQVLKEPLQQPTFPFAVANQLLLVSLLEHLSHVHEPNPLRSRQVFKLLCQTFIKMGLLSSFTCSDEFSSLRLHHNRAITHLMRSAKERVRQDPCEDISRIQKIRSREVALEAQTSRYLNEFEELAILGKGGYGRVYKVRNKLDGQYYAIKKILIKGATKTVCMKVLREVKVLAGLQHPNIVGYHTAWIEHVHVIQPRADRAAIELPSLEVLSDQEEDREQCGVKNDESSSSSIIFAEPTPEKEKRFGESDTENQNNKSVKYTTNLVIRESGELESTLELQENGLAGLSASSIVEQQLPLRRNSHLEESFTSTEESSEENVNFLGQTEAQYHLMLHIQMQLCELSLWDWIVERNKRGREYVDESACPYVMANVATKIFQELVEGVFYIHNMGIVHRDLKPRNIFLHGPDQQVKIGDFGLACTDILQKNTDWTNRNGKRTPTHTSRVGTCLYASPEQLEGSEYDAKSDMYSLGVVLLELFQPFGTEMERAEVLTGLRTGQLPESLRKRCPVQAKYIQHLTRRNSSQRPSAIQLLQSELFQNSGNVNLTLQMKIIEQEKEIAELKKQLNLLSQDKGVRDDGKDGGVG

IC50 [1] [nM]	IC50 [2] [nM]	SMILES
620		COc1ncc(Cl)cc1S(=O)(=O)Nc1ccc(F)c(C#Cc2cnc(N)nc2)c1F [GCN2iB]
	1070	COC(=O)N[C@@H](C)CNc1nccc(-c2cn(C(C)C)nc2-c2cc(Cl)cc(NS(C)(=O)=O)c2F)n1 [encorafenib]
